# Experiments:
# Npc1^nmf164 mice = assay: Survival of drug treated NPC mice (Kaplan-Meier); type: in vivo, mouse; conditions: for median life span: males and females combined, weekly i.p., Vo 50 mg/Kg in PEG, 2×HPBCD 4000 mg/Kg, TCF (Vo 50 mg/Kg+HPBCD 2000 mg/Kg+PEG); for effect on animal survival: i.p. once weekly from day 21
# From the text: The present study, inter alia, evaluated the efficacy of Vorinostat (Vo) an HDACi for the treatment of Niemann-Pick Type C disease in a mouse model. […] We hypothesized poor solubility, reduced plasma exposure and penetration across the Blood Brain Barrier (BBB) of Vo to be the possible reasons behind its ineffectiveness in the animals. To overcome these limitations, we used HPBCD as an excipient and made a formulation that contained Vo, HPBCD and polyethylene glycol (PEG) and named it Triple combination Formulation (TCF). The effect of TCF was evaluated using different molecular, biochemical, histological and neurobehavioral measures in NPC mice at indicated ages. For survival and neurobehavioral testing 8-10 mice were used in groups injected with drug. At least 6 mice were used in vehicle treated group. End point for survival studies were set at ≥30% weight loss. For molecular, biochemical, histological analyses at least 3-4 mice were used with at least two technical replicates in each assay. Animals were randomly assigned to treatment groups. Equal numbers of males and females were included in each group. Two independent PK experiments in mice were done each containing 5 mice in a group. The reliability and robustness of neurobehavioral scoring system was evaluated by two blinded investigators. Investigators were blinded to the drug injections while assessing the neurobehavioral functions. Determination of Vo in plasma samples were done by blinded investigators at the Metabolite Profiling Facility, Purdue University, IN, USA. Sample sizes were chosen based on previous experience or similar studies conducted by others. All data points were used in the statistical analyses.
# Npc1^nmf164, BALB/c strain carrying an aspartate to glycine mutation at position 1005 (D1005G) in Npc1 gene was used as NPC disease model. (Maue, R. A., et al., Hum Mol Genet 21: 730-750 (2012)).When animals were sick and unable to reach the food provided on the holder, regular food (2019 Teklad diet, Harlan Laboratories, Indianapolis, Ind.) was replaced with DietGel 76A (Clear H2O, Portland, Me.). Studies with mice were performed with approval and authorization from the Institutional Animal Care and Use Committee of University of Notre Dame, Indiana, USA.
# (§1) Vorinostat (50 mg/Kg)—Vorinostat was first dissolved in DMSO (100 mg/ml) and then diluted with 9 volume of Polyethylene Glycol 400 (PEG). This drug solution was named as ‘solution A’. Solution A was diluted with equal volume of water where the final concentration of each component was as follows; Vorinostat, 5 mg/ml; DMSO, 5% and PEG, 45%. Mice were given weekly intraperitoneal (i.p) injections starting at 21 days. Vorinostat (100 mg/Kg)—Vorinostat was first dissolved in DMSO (200 mg/ml) and then mixed with 9 volumes of PEG. Rest of the methods and injections plan were as described above. HPBCD (4000 mg/Kg)—40% HPBCD solution prepared in water. Mice were given weekly i.p injections starting at 7 days. HPBCD (2000 mg/Kg)—20% HPBCD solution prepared in water. Mice were given weekly i.p injections starting at 7 days. TCF (Vorinostat, 50 mg/Kg+HPBCD, 2000 mg/Kg, DMSO, 5%+PEG, 45%)—To prepare the formulation, the ‘solution A’ was first prepared as described above and equal volume of 40% HPBCD solution was slowly layered on top of it. The solution was gently mixed for 10 min at RT on rocker set at medium speed. The final concentration of each component in the formulation was as follows; Vorinsotat, 5 mg/ml; DMSO 5%; PEG, 45%; and HPBCD, 20%. Mice were given two i.p doses of HPBCD (2000 mg/Kg) at 7 and 15 days. Starting from 21 days mice were given weekly i.p injection of TCF. Vehicle control (5% DMSO and 45% PEG)—It was made by mixing 1 volume of DMSO with 9 volume of PEG and then diluted with equal volume of water. Mice were given weekly i.p injection starting from 21 days. All drug solutions were stored at −80° C. Fresh vials of frozen stock were thawed for injection on different days. […]
# Npc1 transcript [1] = assay: qPCR of Npc1 transcript in brain; type: in vivo, mouse; conditions: at 100 days
# Experimental: as §1, with “speed.” for “speed. The final concentration of each component in the formulation was as follows; Vorinsotat, 5 mg/ml; DMSO 5%; PEG, 45%; and HPBCD, 20%. Mice were given two i.p doses of HPBCD (2000 mg/Kg) at 7 and 15 days. Starting from 21 days mice were given weekly i.p injection of TCF. Vehicle control (5% DMSO and 45% PEG)—It was made by mixing 1 volume of DMSO with 9 volume of PEG and then diluted with equal volume of water. Mice were given weekly i.p injection starting from 21 days. All drug solutions were stored at −80° C. Fresh vials of frozen stock were thawed for injection on different days.”
# (§2) Quantitative PCR (qPCR) was performed using Power SYBR Green RNA-to-CT 1-Step Kit and an ABI Prism 7500 Fast real-time PCR system (Applied Biosystems, Grand Island, USA). […] The relative amount of transcript was determined using comparative CT method. […]
# Npc1 transcript [2] = assay: qPCR of Npc1 transcript in liver; type: in vivo, mouse; conditions: at 100 days
# Experimental: as §1, with “speed.” for “speed. The final concentration of each component in the formulation was as follows; Vorinsotat, 5 mg/ml; DMSO 5%; PEG, 45%; and HPBCD, 20%. Mice were given two i.p doses of HPBCD (2000 mg/Kg) at 7 and 15 days. Starting from 21 days mice were given weekly i.p injection of TCF. Vehicle control (5% DMSO and 45% PEG)—It was made by mixing 1 volume of DMSO with 9 volume of PEG and then diluted with equal volume of water. Mice were given weekly i.p injection starting from 21 days. All drug solutions were stored at −80° C. Fresh vials of frozen stock were thawed for injection on different days.”
# as §2
# [3] = delivered systemically; cited from earlier work
Compound,median life span (Npc1^nmf164 mice),effect on animal survival (Npc1^nmf164 mice; vorinostat 50 mg/Kg in PEG),"effect on animal survival (Npc1^nmf164 mice; vorinostat 50 mg/Kg in PEG, listed as Vorinostat)",effect on animal survival (Npc1^nmf164 mice; vorinostat 100 mg/Kg in PEG),Npc1 transcript levels in the brain (Npc1 transcript [1]),Npc1 transcript levels in the liver (Npc1 transcript [2]),crossing of the blood brain barrier [3],"increase of survival relative to vorinostat in PEG (Npc1^nmf164 mice; 4000 mg/Kg weekly i.p., 180 vs 134 d)"
O=C(CCCCCCC(=O)Nc1ccccc1)NO [vorinostat],134 days,no significant survival benefit,no significant beneficial effect on animal survival,no survival benefit,little or no effect on brain Npc1 transcript levels,–,–,–
"CC(O)COC[C@H]1O[C@@H]2O[C@H]3[C@H](O)[C@@H](O)[C@@H](O[C@H]4[C@H](O)[C@@H](O)[C@@H](O[C@H]5[C@H](O)[C@@H](O)[C@@H](O[C@H]6[C@H](O)[C@@H](O)[C@@H](O[C@H]7[C@H](O)[C@@H](O)[C@@H](O[C@H]8[C@H](O)[C@@H](O)[C@@H](O[C@H]1[C@H](O)[C@H]2O)O[C@@H]8COCC(C)O)O[C@@H]7COCC(C)O)O[C@@H]6COCC(C)O)O[C@@H]5COCC(C)O)O[C@@H]4COCC(C)O)O[C@@H]3COCC(C)O (stereo partly drawn) [HPBCD, 2-Hydroxypropyl-β-cyclodextrin]",180 days,–,–,–,little or no effect on brain Npc1 transcript levels,no effect on target Npc1 expression,does not cross the blood brain barrier,increased survival by a third
